From PubChem BioAssay AID2060904 (Molecular Pharmacology Branch, DTP, NCI, 2025)

System: 349418-098-R-PDC complex spheroid viability
Test: Anticancer human tumor 349418-098-R-PDC patient-derived lung adenocarcinoma cell line growth inhibition [RAS]
Conditions: for IC50: curve of first compound; for viability, T/C: stronger effect = lower value
How it was run: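 Tumour cells grown as complex spheroids with HUVEC endothelial cells and mesenchymal stem cells, treated with RAS pathway inhibitor combinations. Each agent spans half-log steps from near clinical Cmax, or 10 microM where Cmax is unknown.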
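Further: spheroids exposed to compound for seven days before viability readout.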

In the case of `C=CC(=O)Nc1cc(Nc2nccc(-c3cn(C)c4ccccc34)n2)c(OC)cc1N(C)CCN(C)C` + CCn1c(-c2cc(N3CCN(C)CC3)cnc2C(C)OC)c2c3cc(ccc31)-c1csc(n1)CC(NC(=O)C1CC1C)C(=O)N1CCCC(N1)C(=O)OCC(C)(C)C2, the IC50 (second compound 0.000949 µM) is reported as > 1 µM, the IC50 (second compound 0.003 µM) is reported as > 1 µM and the IC50 (second compound 0.00949 µM) is reported as > 1 µM. The IC50 (second compound 0.03 µM) was > 1 µM, the IC50 (second compound 0.0949 µM) was > 1 µM and the IC50 (second compound 0.3 µM) was > 1 µM. It also gave a viability, T/C (second compound 0.000949 µM, first compound 0.00316 µM) of 101%, a viability, T/C (second compound 0.000949 µM, first compound 0.01 µM) of 94.8% and a viability, T/C (second compound 0.000949 µM, first compound 0.0316 µM) of 112%. For the same molecule, the viability, T/C (second compound 0.000949 µM, first compound 0.1 µM) was 109%, the viability, T/C (second compound 0.000949 µM, first compound 0.316 µM) was 96.8% and the viability, T/C (second compound 0.000949 µM, first compound 1 µM) was 76%. The viability, T/C (second compound 0.003 µM, first compound 0.00316 µM) was 112%, the viability, T/C (second compound 0.003 µM, first compound 0.01 µM) was 95.8% and the viability, T/C (second compound 0.003 µM, first compound 0.0316 µM) was 94.4%. It also gave a viability, T/C (second compound 0.003 µM, first compound 0.1 µM) of 98.7%, a viability, T/C (second compound 0.003 µM, first compound 0.316 µM) of 95% and a viability, T/C (second compound 0.003 µM, first compound 1 µM) of 70.3%. For the same molecule, the viability, T/C (second compound 0.00949 µM, first compound 0.00316 µM) was 100%, the viability, T/C (second compound 0.00949 µM, first compound 0.01 µM) was 88.5% and the viability, T/C (second compound 0.00949 µM, first compound 0.0316 µM) was 94.8%. It also gave a viability, T/C (second compound 0.00949 µM, first compound 0.1 µM) of 75.8%, a viability, T/C (second compound 0.00949 µM, first compound 0.316 µM) of 98.6% and a viability, T/C (second compound 0.00949 µM, first compound 1 µM) of 75.7%. The viability, T/C (second compound 0.03 µM, first compound 0.00316 µM) was 100%, the viability, T/C (second compound 0.03 µM, first compound 0.01 µM) was 107% and the viability, T/C (second compound 0.03 µM, first compound 0.0316 µM) was 107%. For the same molecule, the viability, T/C (second compound 0.03 µM, first compound 0.1 µM) was 102%, the viability, T/C (second compound 0.03 µM, first compound 0.316 µM) was 92.1% and the viability, T/C (second compound 0.03 µM, first compound 1 µM) was 65.3%. For the same molecule, the viability, T/C (second compound 0.0949 µM, first compound 0.00316 µM) was 105%, the viability, T/C (second compound 0.0949 µM, first compound 0.01 µM) was 101% and the viability, T/C (second compound 0.0949 µM, first compound 0.0316 µM) was 97.8%. It also gave a viability, T/C (second compound 0.0949 µM, first compound 0.1 µM) of 105%, a viability, T/C (second compound 0.0949 µM, first compound 0.316 µM) of 86.7% and a viability, T/C (second compound 0.0949 µM, first compound 1 µM) of 72.8%. It also gave a viability, T/C (second compound 0.3 µM, first compound 0.00316 µM) of 98.1%, a viability, T/C (second compound 0.3 µM, first compound 0.01 µM) of 101% and a viability, T/C (second compound 0.3 µM, first compound 0.0316 µM) of 108%. For the same molecule, the viability, T/C (second compound 0.3 µM, first compound 0.1 µM) was 102%, the viability, T/C (second compound 0.3 µM, first compound 0.316 µM) was 109% and the viability, T/C (second compound 0.3 µM, first compound 1 µM) was 77.6%.
Molecule `CCN1CCN(Cc2ccc(Nc3ncc(F)c(-c4cc(F)c5nc(C)n(C(C)C)c5c4)n3)nc2)CC1` + C#Cc1c(F)ccc2cc(O)cc(-c3ncc4c(N5CC6CCC(C5)N6)nc(OCC56CCCN5CC(F)C6)nc4c3F)c12 has an IC50 (second compound 0.0316 µM) of 0.0079 µM, an IC50 (second compound 0.1 µM) of 0.0305 µM and an IC50 (second compound 0.316 µM) of 0.0182 µM. The IC50 (second compound 1 µM) was 0.0123 µM, the IC50 (second compound 3.16 µM) was 0.0103 µM and the IC50 (second compound 10 µM) was < 0.00316 µM. It also gave a viability, T/C (second compound 0.0316 µM, first compound 0.00316 µM) of 66.8%, a viability, T/C (second compound 0.0316 µM, first compound 0.01 µM) of 38.2% and a viability, T/C (second compound 0.0316 µM, first compound 0.0316 µM) of 41.9%. The viability, T/C (second compound 0.0316 µM, first compound 0.1 µM) was 25.9%, the viability, T/C (second compound 0.0316 µM, first compound 0.316 µM) was 18% and the viability, T/C (second compound 0.0316 µM, first compound 1 µM) was 16.3%. It also gave a viability, T/C (second compound 0.1 µM, first compound 0.00316 µM) of 76.2%, a viability, T/C (second compound 0.1 µM, first compound 0.01 µM) of 77.7% and a viability, T/C (second compound 0.1 µM, first compound 0.0316 µM) of 47.6%. For the same molecule, the viability, T/C (second compound 0.1 µM, first compound 0.1 µM) was 25.7%, the viability, T/C (second compound 0.1 µM, first compound 0.316 µM) was 22% and the viability, T/C (second compound 0.1 µM, first compound 1 µM) was 14.4%. The viability, T/C (second compound 0.316 µM, first compound 0.00316 µM) was 78.2%, the viability, T/C (second compound 0.316 µM, first compound 0.01 µM) was 59.9% and the viability, T/C (second compound 0.316 µM, first compound 0.0316 µM) was 40.8%. It also gave a viability, T/C (second compound 0.316 µM, first compound 0.1 µM) of 28.9%, a viability, T/C (second compound 0.316 µM, first compound 0.316 µM) of 24.4% and a viability, T/C (second compound 0.316 µM, first compound 1 µM) of 16.2%. For the same molecule, the viability, T/C (second compound 1 µM, first compound 0.00316 µM) was 79.4%, the viability, T/C (second compound 1 µM, first compound 0.01 µM) was 49.6% and the viability, T/C (second compound 1 µM, first compound 0.0316 µM) was 37.8%. It also gave a viability, T/C (second compound 1 µM, first compound 0.1 µM) of 33.5%, a viability, T/C (second compound 1 µM, first compound 0.316 µM) of 20.5% and a viability, T/C (second compound 1 µM, first compound 1 µM) of 19.9%. The viability, T/C (second compound 3.16 µM, first compound 0.00316 µM) was 74.1%, the viability, T/C (second compound 3.16 µM, first compound 0.01 µM) was 51.3% and the viability, T/C (second compound 3.16 µM, first compound 0.0316 µM) was 32.8%. The viability, T/C (second compound 3.16 µM, first compound 0.1 µM) was 29.1%, the viability, T/C (second compound 3.16 µM, first compound 0.316 µM) was 30.4% and the viability, T/C (second compound 3.16 µM, first compound 1 µM) was 16.6%. The viability, T/C (second compound 10 µM, first compound 0.00316 µM) was 26.7%, the viability, T/C (second compound 10 µM, first compound 0.01 µM) was 37.7% and the viability, T/C (second compound 10 µM, first compound 0.0316 µM) was 14.3%. For the same molecule, the viability, T/C (second compound 10 µM, first compound 0.1 µM) was 12.5%, the viability, T/C (second compound 10 µM, first compound 0.316 µM) was 5.58% and the viability, T/C (second compound 10 µM, first compound 1 µM) was 2.78%.
For `CC1(C)CCC(Nc2ncc(C(F)(F)F)c(-c3c[nH]c4c(P(C)(C)=O)c(C#N)ccc34)n2)CN1` (stereo unspecified) + CCn1c(-c2cc(N3CCN(C)CC3)cnc2C(C)OC)c2c3cc(ccc31)-c1csc(n1)CC(NC(=O)C1CC1C)C(=O)N1CCCC(N1)C(=O)OCC(C)(C)C2, the IC50 (second compound 0.000949 µM) was 0.00107 µM, the IC50 (second compound 0.003 µM) was 0.00102 µM and the IC50 (second compound 0.00949 µM) was < 0.000949 µM. For the same molecule, the IC50 (second compound 0.03 µM) was 0.00105 µM, the IC50 (second compound 0.0949 µM) was < 0.000949 µM and the IC50 (second compound 0.3 µM) was 0.00109 µM. For the same molecule, the viability, T/C (second compound 0.000949 µM, first compound 0.000949 µM) was 53.6%, the viability, T/C (second compound 0.000949 µM, first compound 0.003 µM) was 23.1% and the viability, T/C (second compound 0.000949 µM, first compound 0.00949 µM) was 13.3%. The viability, T/C (second compound 0.000949 µM, first compound 0.03 µM) was 9.61%, the viability, T/C (second compound 0.000949 µM, first compound 0.0949 µM) was 8.11% and the viability, T/C (second compound 0.000949 µM, first compound 0.3 µM) was 6.35%. The viability, T/C (second compound 0.003 µM, first compound 0.000949 µM) was 52.2%, the viability, T/C (second compound 0.003 µM, first compound 0.003 µM) was 22.1% and the viability, T/C (second compound 0.003 µM, first compound 0.00949 µM) was 14.4%. The viability, T/C (second compound 0.003 µM, first compound 0.03 µM) was 8.76%, the viability, T/C (second compound 0.003 µM, first compound 0.0949 µM) was 7.99% and the viability, T/C (second compound 0.003 µM, first compound 0.3 µM) was 7.95%. It also gave a viability, T/C (second compound 0.00949 µM, first compound 0.000949 µM) of 50.2%, a viability, T/C (second compound 0.00949 µM, first compound 0.003 µM) of 26.2% and a viability, T/C (second compound 0.00949 µM, first compound 0.00949 µM) of 12.5%. It also gave a viability, T/C (second compound 0.00949 µM, first compound 0.03 µM) of 9.59%, a viability, T/C (second compound 0.00949 µM, first compound 0.0949 µM) of 9.15% and a viability, T/C (second compound 0.00949 µM, first compound 0.3 µM) of 8%. For the same molecule, the viability, T/C (second compound 0.03 µM, first compound 0.000949 µM) was 53.3%, the viability, T/C (second compound 0.03 µM, first compound 0.003 µM) was 20.5% and the viability, T/C (second compound 0.03 µM, first compound 0.00949 µM) was 12.5%. For the same molecule, the viability, T/C (second compound 0.03 µM, first compound 0.03 µM) was 9.78%, the viability, T/C (second compound 0.03 µM, first compound 0.0949 µM) was 8.18% and the viability, T/C (second compound 0.03 µM, first compound 0.3 µM) was 8.17%. The viability, T/C (second compound 0.0949 µM, first compound 0.000949 µM) was 49.1%, the viability, T/C (second compound 0.0949 µM, first compound 0.003 µM) was 23.5% and the viability, T/C (second compound 0.0949 µM, first compound 0.00949 µM) was 11.1%. The viability, T/C (second compound 0.0949 µM, first compound 0.03 µM) was 10.2%, the viability, T/C (second compound 0.0949 µM, first compound 0.0949 µM) was 10.9% and the viability, T/C (second compound 0.0949 µM, first compound 0.3 µM) was 7.97%. It also gave a viability, T/C (second compound 0.3 µM, first compound 0.000949 µM) of 53.6%, a viability, T/C (second compound 0.3 µM, first compound 0.003 µM) of 23.7% and a viability, T/C (second compound 0.3 µM, first compound 0.00949 µM) of 11.2%. It also gave a viability, T/C (second compound 0.3 µM, first compound 0.03 µM) of 11%, a viability, T/C (second compound 0.3 µM, first compound 0.0949 µM) of 9.58% and a viability, T/C (second compound 0.3 µM, first compound 0.3 µM) of 7.73%.
